Reference: ChEMBL document CHEMBL5096190, “Recent advances of quinones as a privileged structure in drug discovery” (Eur J Med Chem, 2021)
≈ marks a conversion by molar mass, not a printed value. Blank lines part the entries; values can stand above or below the molecule they belong to.

What was measured:
Arylsulfatase A [1] = molecular target: T1, Arylsulfatase A (Homo sapiens, UniProt P15289); experiment: Inhibition of ARSA (unknown origin) using 4-methylumbelliferyl sulfate (4-MUS) as a substrate by fluorescent assay
T1 sequence (P15289 whole entry): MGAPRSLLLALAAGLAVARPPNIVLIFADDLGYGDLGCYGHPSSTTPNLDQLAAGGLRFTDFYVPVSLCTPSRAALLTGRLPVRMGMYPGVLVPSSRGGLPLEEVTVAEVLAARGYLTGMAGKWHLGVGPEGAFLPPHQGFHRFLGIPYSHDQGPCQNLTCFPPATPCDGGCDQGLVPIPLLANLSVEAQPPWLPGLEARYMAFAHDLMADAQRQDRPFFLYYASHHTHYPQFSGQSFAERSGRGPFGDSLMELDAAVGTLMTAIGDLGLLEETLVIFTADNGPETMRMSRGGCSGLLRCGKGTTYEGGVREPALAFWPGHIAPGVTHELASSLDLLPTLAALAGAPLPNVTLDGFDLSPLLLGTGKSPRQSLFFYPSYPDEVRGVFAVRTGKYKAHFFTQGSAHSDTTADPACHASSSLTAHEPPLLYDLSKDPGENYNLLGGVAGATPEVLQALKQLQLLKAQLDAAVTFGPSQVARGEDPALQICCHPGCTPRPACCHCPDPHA

Arylsulfatase A [2] = molecular target: T1, Arylsulfatase A; experiment: Binding affinity to ARSA (unknown origin) assessed as dissociation constant by SPR analysis
GBM = experiment: Anticancer activity against human GBM cells assessed as cell growth inhibition incubated for 72 hrs; assay type: functional, cell-based
[3] = Inhibition of NFAT activity in human GBM cells; assay type: cell-based
U-87 MG = experiment: Cytotoxicity against human U87 cells assessed as reduction in cell viability measured after 72 hrs by MTT assay; assay type: functional, cell-based, U-87MG ATCC
SGC-7901 = experiment: Cytotoxicity against human SGC-7901 cells assessed as reduction in cell viability measured after 72 hrs by MTT assay; assay type: functional, cell-based; conditions: SGC-7901, 72 h
MGC-803 = experiment: Cytotoxicity against human MGC-803 cells assessed as reduction in cell viability measured after 72 hrs by MTT assay; assay type: functional, cell-based; conditions: MGC-803, 72 h
Enterococcus hirae = experiment: Antibacterial activity against Enterococcus hirae ATCC 10541 assessed as growth inhibition after 24 hrs by two-fold serial dilution method; assay type: functional
[4] = Inhibition of Hepatitis C virus NS3 helicase measured by fluorescence helicase assay; design: species or system Hepacivirus hominis
BXPC-3 = experiment: Antitumor activity against human BXPC-3 cells assessed as reduction in cell viability and incubated for 3 hrs by MTT assay; assay type: functional, cell-based; conditions: BXPC-3, 3 h
PANC-1 = experiment: Antitumor activity against human PANC-1 cells assessed as reduction in cell viability and incubated for 3 hrs by MTT assay; assay type: functional, cell-based; conditions: PANC-1, 3 h
MIA PaCa-2 = experiment: Antitumor activity against human MIA PaCa-2 cells assessed as reduction in cell viability and incubated for 3 hrs by MTT assay; assay type: functional, cell-based; conditions: MIA PaCa-2, 3 h
Cholinesterase = Cholinesterase (Homo sapiens, UniProt P06276); experiment: Inhibition of human BuChE at 550 uM using butyrylthiocholine chloride as substrate by Ellman's method
MOLT-4 = experiment: Cytotoxicity against human MOLT-4 cells assessed as inhibition of cell growth incubated for 24 to 72 hrs by MTT assay; assay type: functional, cell-based

Sequence of Cholinesterase (P06276 whole entry): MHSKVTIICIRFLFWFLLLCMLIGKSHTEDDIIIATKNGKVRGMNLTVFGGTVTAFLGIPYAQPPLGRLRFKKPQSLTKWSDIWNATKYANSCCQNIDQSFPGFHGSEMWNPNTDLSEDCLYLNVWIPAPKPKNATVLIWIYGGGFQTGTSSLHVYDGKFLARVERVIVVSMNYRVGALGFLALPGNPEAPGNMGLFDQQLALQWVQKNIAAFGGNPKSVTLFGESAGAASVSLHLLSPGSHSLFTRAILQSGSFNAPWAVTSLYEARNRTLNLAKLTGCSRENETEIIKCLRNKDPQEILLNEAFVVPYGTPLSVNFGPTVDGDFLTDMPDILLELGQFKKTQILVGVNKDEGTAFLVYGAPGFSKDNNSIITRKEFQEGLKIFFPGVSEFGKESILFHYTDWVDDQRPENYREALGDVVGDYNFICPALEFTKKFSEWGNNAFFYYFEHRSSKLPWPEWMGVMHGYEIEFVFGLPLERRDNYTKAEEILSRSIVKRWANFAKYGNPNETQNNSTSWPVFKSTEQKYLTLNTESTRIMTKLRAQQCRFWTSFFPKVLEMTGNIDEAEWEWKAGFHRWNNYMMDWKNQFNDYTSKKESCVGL

- IC50 (Arylsulfatase A [1]): 13.2 µM
- Kd (Arylsulfatase A [2]): 21 µM
SMILES: O=C1C=CC(=O)c2c1ccc1c2c(=O)oc2c3ccccc3ccc12

SMILES: Nc1c(-c2cccnc2)ncc2c1C(=O)c1c(-c3ccccn3)nn(-c3ccc(F)cc3F)c1C2=O
- IC50 (GBM): 25 µM

- IC50 [3]: 0.82 µM
SMILES: O=C1C=C(Nc2ccc3cnccc3c2)c2ccccc2C1=O

SMILES: CC(C)=CCC(OC(=O)CCC(=O)Nc1ccc(Oc2ccccc2)cc1)C1=CC(=O)c2c(O)ccc(O)c2C1=O (stereo not drawn)
- IC50 (U-87 MG): 3.8 µM
- IC50 (SGC-7901): 4.1 µM
- IC50 (MGC-803): 4.1 µM

- MIC (Enterococcus hirae): 4 µg/mL (≈ 9.9 µM)
SMILES: NC1=C(NC(=O)Cn2cc(CCBr)nn2)C(=O)c2ccccc2C1=O

- IC50 [4]: 0.8 µM
SMILES: O=C(O)c1cc(O)c2c(c1)[C@H]([C@@H]1c3cccc(O)c3C(=O)c3c(O)cc(C(=O)O)cc31)c1cccc(O)c1C2=O

- MIC (Enterococcus hirae): 4 µg/mL (≈ 10.2 µM)
SMILES: NC1=C(NC(=O)Cn2cc(CC3CCCCC3)nn2)C(=O)c2ccccc2C1=O

- IC50 [4]: 6 µM
SMILES: O=C1c2c(O)ccc(O)c2C(=O)c2c(O)ccc(O)c21

- IC50 (BXPC-3): 2.7 µM
- IC50 (PANC-1): 2.2 µM
- IC50 (MIA PaCa-2): 1.9 µM
SMILES: CC(=O)c1ccccc1NC1=CC(=O)c2ncncc2C1=O

SMILES: CC1=C(NC2CCN(Cc3ccccc3)CC2)C(=O)c2ccccc2C1=O
- IC50 (Cholinesterase): 0.0957 µM

SMILES: Nc1c(-c2ccccc2)ncc2c1C(=O)c1c(-c3ccccn3)nn(-c3ccc(F)cc3F)c1C2=O
- IC50 (GBM): 25 µM

SMILES: C[C@@]12CCC(=O)c3coc(c31)C(=O)c1cc3c(cc12)C(=O)C=CC3=O [HELENAQUINONE]
- IC50 (MOLT-4): 1.44 µM

SMILES: Cc1cc(O)c2c(=O)c3c(O)cc(O)c4c5c(O)cc(O)c6c(=O)c7c(O)cc(C)c8c1c2c(c34)c(c78)c65 [HYPERICIN]
- IC50 [4]: 3 µM
